From patent US20200399222A1, “PICOLINAMIDES AS FUNGICIDES” (Dow AgroSciences LLC, priority 2018, published 2020)
Where two headings read alike, the source gives them in different places.

Legend:
Assay type in all cases: in vivo
Phakopsora pachyrhizi = experiment: Asian soybean rust (PHAKPA) disease control on soybean seedlings; conditions: High volume application at 25 ppm; for pest or weed control at 25 ppm: Phakopsora pachyrhizi
Experimental: Example C: Evaluation of Fungicidal Activity: Asian Soybean Rust (Phakopsora pachyrhizi; Bayer Code […]) Technical grades of materials were dissolved in acetone, which were then mixed with nine volumes of water containing 0.011% Tween 20. The fungicide solutions were applied onto soybean seedlings using an automated booth sprayer to run-off. All sprayed plants were allowed to air dry prior to further handling. Soybean plants (variety Williams 82) were grown in soil-less Metro mix, with one plant per pot. Two week old seedlings were used for testing. Plants were inoculated either 3 days prior to or 1 day after fungicide treatments. Plants were incubated for 24 h in a dark dew room at 22° C. and 100% relative humidity then transferred to a growth room at 23° C. for disease to develop. Disease severity was assessed on the sprayed leaves.

Zymoseptoria tritici = experiment: Leaf blotch of wheat (SEPTTR) disease control on wheat seedlings; conditions: for pest or weed control at 121.5 g/ha: Low volume application; for pest or weed control at 100 ppm: High volume application
Puccinia triticina = experiment: Wheat brown rust (PUCCRT) disease control on wheat seedlings; conditions: for pest or weed control at 121.5 g/ha: Low volume application; for pest or weed control at 100 ppm: High volume application
How it was run: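 Yuma wheat seedlings (first leaf emerged) sprayed to run-off with compound in acetone plus nine volumes water containing 110 ppm Triton X-100, or track-sprayed as EC formulations with 0.1% Trycol 5941. Rust spores inoculated before or after treatment; overnight dark dew, 22 °C, 100% RH, then greenhouse at 24 °C.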

[1] = 24 h, 1 day protectant, read-out: PHAKPA 1DP (1 Day Protectant) disease control
[2] = 72 h, 3 day curative, read-out: PHAKPA 3DC (3 Day Curative) disease control
[3] = 24 h, 1 Day Protectant, read-out: SEPTTR disease control rating, 1DP
[4] = 72 h, 3 Day Curative, read-out: SEPTTR disease control rating, 3DC
[5] = 24 h, 1 Day Protectant, read-out: PUCCRT disease control rating, 1DP
[6] = 72 h, 3 Day Curative, read-out: PUCCRT disease control rating, 3DC

Compound	pest or weed control at 25 ppm (Phakopsora pachyrhizi; [1]) [%]	pest or weed control at 25 ppm (Phakopsora pachyrhizi; [2]) [%]	pest or weed control at 121.5 g/ha (Zymoseptoria tritici; [3]) [%]	pest or weed control at 121.5 g/ha (Zymoseptoria tritici; [4]) [%]	pest or weed control at 121.5 g/ha (Puccinia triticina; [5]) [%]	pest or weed control at 121.5 g/ha (Puccinia triticina; [6]) [%]	pest or weed control at 100 ppm (Zymoseptoria tritici; [3]) [%]	pest or weed control at 100 ppm (Zymoseptoria tritici; [4]) [%]	pest or weed control at 100 ppm (Puccinia triticina; [5]) [%]	pest or weed control at 100 ppm (Puccinia triticina; [6]) [%]	PHAKPA 1DP (1 Day Protectant) disease control (Phakopsora pachyrhizi; 1 day protectant)	PHAKPA 3DC (3 Day Curative) disease control (Phakopsora pachyrhizi; 3 day curative)
COc1cc[n+]([O-])c(C(=O)N[C@@H](C)C(=O)O[C@@H](C)[C@@H](C)c2ccccc2C(F)(F)F)c1O [Example 273]	< 80	< 80	< 80	< 80	< 80	< 80	–	–	–	–	–	–
COc1ccnc(C(=O)N[C@@H](C)C(=O)O[C@@H](C)[C@@H](C)c2ccc(F)cc2C(F)(F)F)c1OC(C)=O [Example 246]	> 80	> 80	> 80	> 80	> 80	> 80	–	–	–	–	–	–
COc1ccnc(C(=O)N[C@@H](C)C(=O)O[C@H](C)[C@H](C)c2ccc(C)cc2C)c1OC(C)=O [Example 178]	> 80	< 80	< 80	< 80	< 80	< 80	–	–	–	–	–	–
COc1ccnc(C(=O)N[C@@H](C)C(=O)O[C@H](C)[C@H](C)C2CCCC2)c1OC(=O)C(C)C [Example 241]	< 0	< 0	< 80	< 0	< 0	< 0	–	–	–	–	–	–
COc1ccnc(C(=O)N[C@@H](C)C(=O)O[C@H](C)[C@H](C)c2ccccc2C(F)(F)F)c1OC(C)=O [Example 250]	< 80	< 80	< 80	< 80	< 0	< 80	–	–	–	–	–	–
COc1ccnc2c(=O)n([C@@H](C)C(=O)O[C@@H](C)[C@@H](C)c3ccccc3)c(=O)oc12 [Example 261]	< 80	< 80	< 80	< 0	< 80	< 0	–	–	–	–	–	–
COc1ccnc(C(=O)N[C@@H](C)C(=O)O[C@@H](C)[C@@H](C)c2ccc(F)cc2C(F)(F)F)c1O [Example 159]	–	> 80	–	–	–	–	> 80	> 80	> 80	> 80	–	–
COc1cc[n+]([O-])c(C(=O)N[C@@H](C)C(=O)O[C@@H](C)[C@@H](C)c2ccc(F)cc2C(F)(F)F)c1O [Example 274]	< 80	< 80	< 80	< 80	< 80	< 80	–	–	–	–	–	–
COc1cc[n+]([O-])c(C(=O)N[C@@H](C)C(=O)O[C@@H](C)[C@@H](C)c2ccccc2)c1O [Example 276]	< 0	< 80	< 80	< 80	< 80	< 80	< 80	< 80	> 80	< 80	–	–
COc1cc(F)ccc1[C@@H](C)[C@@H](C)OC(=O)[C@H](C)NC(=O)c1nccc(OC)c1OC(C)=O [Example 260]	> 80	< 80	< 80	< 0	< 0	< 0	< 80	< 80	> 80	< 80	–	–
COc1ccnc(C(=O)N[C@@H](C)C(=O)O[C@@H](C)[C@@H](C)c2ccccc2C(F)(F)F)c1OC(=O)C(C)C [Example 234]	> 80	> 80	< 80	< 80	< 80	< 80	–	–	–	–	–	–
COc1ccnc(C(=O)N[C@@H](C)C(=O)OC(C)C(C)c2c(C)cccc2C)c1OC(C)=O (stereo partly shown) [Example 255]	> 80	> 80	< 80	> 80	> 80	< 80	–	–	–	–	–	–
COc1ccnc(C(=O)N[C@H](C(=O)O[C@H](C)[C@@H](C)c2ccccc2C)C(C)C)c1OC(=O)C(C)C [Example 215]	< 80	< 80	–	–	–	–	–	–	–	–	–	–
COc1ccnc(C(=O)N[C@@H](C)C(=O)O[C@@H](C)[C@@H](C)c2ccccc2C)c1OCOC(=O)C(C)C [Example 284]	> 80	> 80	–	–	–	–	–	–	–	–	–	–
COc1ccnc(C(=O)NCC(=O)O[C@@H](C)[C@@H](C)c2ccc(F)cc2C)c1OC(=O)C(C)C [Example 196]	–	–	–	–	–	–	–	–	–	–	A (>80)	B (≤80)
